Test results reported in patent US20070117849A1, “Alfavbeta3 and alfavbet6 integrin antagonists as antifibrotic agents” (priority 2003, published 2007).

Tests used:
[1] = test system: secondary biliary liver fibrosis; assay: Rat fibrosis model of bile duct occlusion (secondary biliary liver fibrosis); type: in vivo; conditions: after 5-6 weeks of bile duct occlusion, pilot experiments
Description: Animal experimentation: Male adult Wistar rats, average weight 206±19 g, underwent the following microsurgical procedure under an operating microscope (OPMI 6-S, Zeiss, Germany) (45-47): 1. midline abdominal incision following anesthesia with 100 mg/kg ketamine-hydrochloride (Ketanest®, Parke-Davis, Germany) and 10 mg/kg 5,6-dihydro-2-(2,6-xylidino)-4H-1,3-thiazine-hydrochloride (Rompun®, Bayer, Germany); 2. dissection of the common bile duct, insertion of a teflon catheter (Abbocath®-T 26 G, Venisystems, USA) and placement of a distal complete and a proximal incomplete ligature with 5-0 silk (Perma-hand®, Ethicon, Germany); 3. retrograde injection of sodium-amidotrizoate (Ethibloc®, Ethicon Germany) at a dose of […] body weight; 4. removal of the catheter, closure of the proximal ligature, scission of the bile duct between the ligatures and wound closure. After bile duct occlusion (BDO), animals received normal chow (Altromin®, Lage, Germany) and were allowed free access to water. […]
(§1) To investigate whether the […] integrin inhibitor had any effect on ECM expression in HSC/MF mRNA, expression of a spectrum of the major pro- and anti-fibrogenic molecules like procollagen α1(I) I, TGFβ1, TGFβ2, MMP-3, MMP-13, MMP-2, connective tissue growth factor (CTGF) and TIMP-1 was measured by Real-Time PCR. […]

primary rat HSC/MF = assay: Scratch assay (cell migration), primary rat HSC/MF; type: cell-based
Description: Briefly, the liver was perfused in situ through the portal vein using a 16-18 G cannula with calcium-free HBSS (Gybco, UK) for S min followed by 0,1% Pronase E (Sigma) and subsequently 0.025% type IV collagenase (Sigma) in Dulbecco's modified Eagle's medium for 10-15 min each. The digested liver was excised, gently minced and incubated further with 0.04% pronase, 0,025% collagenase, 0,002% DNAse (Sigma) in Dulbecco's modified Eagle's medium, supplemented with 25 mM HEPES at 37° C. for 10-30 min with gentle agitation. After filtration through 100 μm nylon gauze, parenchymal cells were removed by low speed centrifugation. The HSC fraction was collected from the gradient interface after enrichment by a two-step centrifugation through a 11 and 13% gradient of Nycodenz (Sigma) at 1500 g for 15 min without braking, and plated at a density 0.5×10^6/cm^2 in DMEM supplemented with 10% FCS, penicillin and streptomycin. Medium was changed after 24 h, and further every 48 hours. Viability of the isolated cells was assessed by Trypan Blue exclusion and was routinely greater then 95-98%. Purity of HSC isolates was confirmed by their typical morphological appearance: lipid-droplets in the cytoplasm showing greenish autofluorescence at 390 nm excitation and star-like shape. Contamination with Kupffer cells was assessed by the ability to engulf 3 μm latex beads and was below 3-5% after isolation, and almost undetectable after the 1st passage. For experiments cells were used between the 1st and 3rd passage, if not stated otherwise.
(§2) Scratch assay: Cell migration was estimated by measuring the reduction of scratch area. Cells were seeded on a 24-well plate at a density of 60,000 cells/well. After reaching confluency cells were starved in serum-free medium for 24 h before making a scratch through the cell monolayer using a sterile pipet tip. After wounding cells were pre-treated by the αvβ3-integrin inhibitor at increasing concentrations (10^−10M-10^−6M) for 30 min and then treated by PDGF-BB at a concentration of 10 ng/ml in the absence of serum. The reduction of scratch area was measured at three different points per well using a special ocular with net-micrometer after […].
(§3) All experiments were performed in cell culture with the myofibroblasts-like cell line CFSC-2G (HSC cell line derived from cirrhotic rat liver) and primary rat HSC/MF. To investigate the effect of the αvβ3 integrin inhibitor on cell migration cells were seeded on 24 well plates and after reaching confluence starved in the absence of FCS for 24 h. Scratches were done and the cells treated with PDFG-BB at 10 ng/ml in the presence or absence of the αvβ3 inhibitor at 10^−6-−10^9 M. The rate of migration was measured after 17-20 h as a reduction of initial scratch width. […]

[2] = test system: procollagen α1(I), TGFβ1, TGFβ2, MMP-3, MMP-13, MMP-2, TIMP-1; assay: Real-Time PCR of other pro- and anti-fibrogenic molecules in HSC/MF; type: cell-based, rat; conditions: PDGF-BB 10 ng/ml 24 h; data not shown
Description: (§4) Real-Time PCR Total RNA was isolated from the cell lysates using the RNApure commercial kit (PeqLab, Erlangen, Germany) according to the manufacturer's recommendations. Template cDNA was obtained by reverse transcription of […] of total RNA.
(§5) Relative transcript levels were quantified by real time RT-PCR using the LightCycler system (Roche), using 1,5 μl of template cDNA dilution in a total reaction volume of 15 μl that included Taq DNA-Polymerase, dNTP-mix, reaction buffer, and 3.0 mM MgCl2 provided by the “LightCycler FastStart DNA Master Hybridization Probes Kit” (Roche Molecular Biochemicals, Mannheim, Germany) according to the manufactor's instructions. For every measured transcript a 1:2 to 1:32 dilution series of one sample was used as standard. Data were analyzed with the LightCycler software using the “proportional second derivative maximum” option. The housekeeping genes beta-2 microglobulin or GAPDH were amplified in a parallel reaction for normalization of the results. […]
as §1

CTGF = assay: Real-Time PCR of CTGF expression in CFSC-2G cells; type: cell-based, rat; conditions: PDGF-BB 10 ng/ml 24 h, inhibitor 10^−6-10^−8 M, dose-dependent, maximum of inhibition at 10^−6 M
Description: as §4, §5, §1

CFSC-2G cells = assay: Scratch assay (cell migration), CFSC-2G cells; type: cell-based, rat; conditions: PDGF-BB 10 ng/ml, 17-20 h
Description: In addition the HSC cell lines CFSC-2G (moderately activated, kind gift of Dr. M. Rojkind, Washington DC, USA) were used.
as §2, §3

HSC/MF = assay: BrdU incorporation (cell proliferation, de novo DNA synthesis); type: cell-based, rat
Description: Briefly, the liver was perfused in situ through the portal vein using a 16-18 G cannula with calcium-free HBSS (Gybco, UK) for S min followed by 0,1% Pronase E (Sigma) and subsequently 0.025% type IV collagenase (Sigma) in Dulbecco's modified Eagle's medium for 10-15 min each. The digested liver was excised, gently minced and incubated further with 0.04% pronase, 0,025% collagenase, 0,002% DNAse (Sigma) in Dulbecco's modified Eagle's medium, supplemented with 25 mM HEPES at 37° C. for 10-30 min with gentle agitation. After filtration through 100 μm nylon gauze, parenchymal cells were removed by low speed centrifugation. […] Viability of the isolated cells was assessed by Trypan Blue exclusion and was routinely greater then 95-98%. […] Contamination with Kupffer cells was assessed by the ability to engulf 3 μm latex beads and was below 3-5% after isolation, and almost undetectable after the 1st passage. […]
BrdU incorporation: To assess cell proliferation de novo DNA synthesis was determined as BrdU incorporation. […] During last […] of incubation cells were pulse-labeled with BrdU and its incorporation measured using an ELISA kit (Roche) and a micro-plate reader. […]

Row | Structure (SMILES) | reduction of total liver collagen [1] | inhibition of migration at reduced concentrations of FCS (primary rat HSC/MF; FCS 0,25%, data not shown) | cell migration stimulated by FCS (primary rat HSC/MF; HSC/MF, FCS-stimulated, inhibitor 10^−10-10^−6 M, 20 h) | PDGF-BB induced cell migration into the scratch area (primary rat HSC/MF; primary rat HSC/MF, PDGF-BB 10 ng/ml, inhibitor 10^-9-10^-6 M, 17-20 h, dose-dependent) | PDGF-BB induced cell migration at 10^−6 M (primary rat HSC/MF; primary rat HSC/MF, PDGF-BB 10 ng/ml, inhibitor 10^−6 M, 17-20 h) | transcripts levels of other ECM molecules [2] | CTGF expression (CTGF) | PDGF-BB induced cell migration into the scratch area (CFSC-2G cells; inhibitor 10^-9-10^-6 M, dose-dependent) | PDGF-BB induced cell migration at 10^−6 M (CFSC-2G cells; inhibitor 10^−6 M) | serum-stimulated cell proliferation (HSC/MF; 10% FCS, inhibitor 10^−6-10^−8 M) | PDGF-BB stimulated cell proliferation (HSC/MF; all cell types, PDGF-BB 10 ng/ml, inhibitor 10^−8-10^−6 M, 24 h)
1 | O=C(O)CC(NC(=O)C(COCc1ccccc1)NC(=O)CCCCNc1ccccn1)c1cc(Cl)cc(Cl)c1 (centres unmarked) [EMD 409849, 3-{3-Benzyloxy-2-[5-(pyridin-2-ylamino)-pentanoylamino]-propanoylamino}-3-(3,5-dichloro-phenyl)-propionic acid] | 50-70% | – | – | – | – | – | – | – | – | – | –
2 | CNc1cccc(CCOc2ccc3c(C(CC(=O)O)c4ccc5nsnc5c4)c[nH]c3c2)n1 (centres unmarked) [EMD 409915, 3-Benzo[1,2,5]thiadiazol-5-yl-3-{6-[2-(6-methylamino-pyridin-2-yl)-ethoxy]-1H-indol-3-yl}-propionic acid] | – | did not show any significant inhibition | no effect | strongly inhibited | Complete abrogation | no change | downregulated | strongly inhibited | Complete abrogation | absence of effect | did not have any effect
